According to patent publication US7462643B1, “Essential fatty acids in the prevention of cardiovascular events” (Pfizer Italia S.R.L., priority 1999, dated 2008):

System: patients who have suffered from a myocardial infarction
Assay: clinical trial of 3.5 years in infarcted patients on standard therapy, post-infarction mortality versus control group
Format: in vivo, human
Conditions: added to standard therapy
Description: The efficacy of the treatment, according to the invention, is, for instance, proven by the fact that a surprising and highly significant reduction in post-infarction mortality was observed by such treatment in a clinical trial that lasted for 3.5 years, with protocols substantially designed as follows: • 1 a “control” group received the standard therapy which is usually given to infarcted patients; • 2 a “treatment” group, besides the therapy that was given to the “control” group, received 85% EPA+DHA (1 g daily); • 3 a “treatment” group, besides the therapy that was given to the “control” group received vitamin E; and • 4 a “treatment” group, besides the therapy that was given to the control group, received vitamin E and 85% EPA+DHA (1 g daily). […] From the above clinical results, the person skilled in the art will appreciate that, the use of a pharmaceutical composition in accordance to the present invention is certainly useful in human therapy in preventing mortality in patients who have suffered from a myocardial infarction.

How did the “result on mortality as compared to the control group (in words)” value turn out when vitamin E was run?
The value was “no significant results”.
